Square brackets hold non-standard residues; d marks the D form. Ends that are not written are not given here. Lys(Me2) = CN(C)CCCC[C@H](N)C(=O)O
Columns and labels:
KDM3A = test: LC-MS demethylation activity assay, KDM3A; format: biochemical, human; details: 2 μM KDM, 10 μM H1/H3 peptide, 10 μM FAS, 100 μM LAA, 20 μM 2OG, 50 mM HEPES pH 7.5, 2 h, room temperature
Method: (§1) The substrate specificity of JmjC KDMs for H1 was examined using liquid chromatography coupled to mass spectrometry (LC-MS) assays. The H1 peptides (10 μM) were incubated with the recombinant KDM (2 μM) in HEPES buffer at pH 7.5 at room temperature for 2 h, in the presence of ferrous(II) ammonium sulfate (FAS, 10 μM), sodium ascorbate (LAA, 100 μM) and 2OG (20 μM), and then quenched with formic acid. N^ε-Methylated H3K9 and H3K36 peptides were used as positive controls (Fig. 3–5 and Fig. S2–S6).[26]
(§2) The catalytic domains of the JmjC KDMs used were recombinantly produced as reported in either Escherichia coli (KDM4AM1-L359,[38] KDM4DM1-L359,[39] KDM4EM1-R336,[30] KDM6BD1141–E1590[40] and KDM3CL2157-L2500) or Sf9 cells (KDM3AT515–S1317, KDM3B882–1761, and KDM5DM1-D775) as N-terminally His6-tagged proteins. […] To produce proteins, DNA sequences encoding for KDM3A, KDM3B and KDM5D were inserted into the pFB-LIC vector, containing a TEV-protease cleavable N-terminal 6x-histidine tag via ligation independent cloning (LIC). The resultant plasmids were transformed into baculovirus and Sf9 cells ([…]) which were infected with the virus stock. The cells were grown at 27 °C and 90 rpm for 70 h. Cells were then harvested and suspended in 100 mL of lysis buffer (50 mM HEPES-NaOH, pH 7.4, 500 mM NaCl, 20 mM imidazole, 0.5 mM Tris (2-carboxyethyl)phosphine (TCEP), 5% (v/v) glycerol). […] The supernatant was loaded onto a Ni-NTA gravity column, washed with 10 column volume of lysis buffer and eluted using the elution buffer (50 mM HEPES-NaOH, pH 7.4, 500 mM NaCl, 300 mM imidazole, 0.5 mM TCEP, 5% (v/v) glycerol). The eluted protein was further purified using S200 gel filtration column chromatography (50 mM HEPES-NaOH, pH 7.4, 150 mM NaCl, 0.5 mM TCEP and 5% glycerol). Protein purity was analysed by SDS-PAGE and further confirmed by mass spectrometry. Selected fractions were pooled, concentrated and stored at −80 °C.
(§3) All reagents were purchased from Sigma Aldrich and were of the highest grade available. Ferrous(II) ammonium sulfate (FAS) solutions were prepared freshly by dissolving FAS to 400 mM in 20 mM HCl with subsequent dilution to 1 mM using deionized water. Fresh 2OG (10 mM) and LAA (50 mM) solutions were prepared by dissolving the solids in deionised water. All enzyme reactions were performed in 384-well plates (Greiner Bio-One) with a final reaction volume of 50 μL. Substrate mixtures contained 50 mM HEPES pH 7.5, LAA (100 μM), FAS (10 μM), 2OG (20 μM) and an H1 isoform peptide (10 μM). Reactions were initiated by the addition of enzyme to a final concentration of 2.0 μM. After 2 h, the reactions were stopped by the addition of 5 μL of 10% (v/v) LC-MS grade formic acid (Fisher Scientific) to a final concentration of 1% (v/v). Product analyses were performed by liquid chromatography-mass spectrometry (LC-MS) using an Agilent 1290 infinity II LC system equipped with an Agilent 1290 multisampler and an Agilent 1290 high speed pump and connected to an Agilent 6550 accurate mass iFunnel quadrupole time of flight (Q-TOF) mass spectrometer. 1 μL of the reaction mixture was injected onto a 1.8 μm × 2.1 × 50 mm ZORBAX RRHD Eclipse Plus C18 column (Agilent). Solvent A consisted of HPLC grade water containing 0.1% (v/v) formic acid and solvent B consisted of MeCN containing 0.1% (v/v) formic acid. Peptides were separated using a stepwise gradient (0 min – 95% solvent A, 1.0 min – 80% solvent A, 3.0 min – 45% solvent A, 4.0 min – 45% solvent A, 5.0 min – 0% solvent A, 6.0 min – 0% solvent A, 7.0 min – 95% solvent A). This was followed by a 3 min post-run with 95% solvent A to re-equilibrate the column. All flow rates were 0.2 mL min^−1. A blank injection of HPLC grade water was carried out between each sample injection.

KDM3B = test: LC-MS demethylation activity assay, KDM3B; format: biochemical, human; details: 2 μM KDM, 10 μM H1/H3 peptide, 10 μM FAS, 100 μM LAA, 20 μM 2OG, 50 mM HEPES pH 7.5, 2 h, room temperature
Method: as §1, §2, §3

KDM3C = test: LC-MS demethylation activity assay, KDM3C; format: biochemical, human; details: 2 μM KDM, 10 μM H1/H3 peptide, 10 μM FAS, 100 μM LAA, 20 μM 2OG, 50 mM HEPES pH 7.5, 2 h, room temperature
Method: as §1, §2, §3

KDM4A = test: LC-MS demethylation activity assay, KDM4A; format: biochemical, human; details: 10 μM FAS, 100 μM LAA, 20 μM 2OG, room temperature
Method: as §1, §2, §3

KDM4D = target: T1, KDM4D (Homo sapiens, UniProt Q6B0I6); test: LC-MS demethylation activity assay, KDM4D; format: biochemical; details: room temperature
T1 construct: KDM4AM1-L359,[38]; KDM4DM1-L359,[39]; KDM4EM1-R336,[30]; His6 (N); made in house; host or cells: Escherichia coli
T1 sequence (Q6B0I6 1-359): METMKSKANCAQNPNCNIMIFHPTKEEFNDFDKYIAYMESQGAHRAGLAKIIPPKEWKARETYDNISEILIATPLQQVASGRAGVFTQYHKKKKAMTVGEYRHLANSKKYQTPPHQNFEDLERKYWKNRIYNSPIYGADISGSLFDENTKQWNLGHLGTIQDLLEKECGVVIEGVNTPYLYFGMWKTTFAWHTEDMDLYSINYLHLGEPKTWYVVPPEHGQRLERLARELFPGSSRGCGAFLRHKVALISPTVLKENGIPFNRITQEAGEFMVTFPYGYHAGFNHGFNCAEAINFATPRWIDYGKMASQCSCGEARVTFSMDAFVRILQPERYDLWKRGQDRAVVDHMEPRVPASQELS
Method: as §1, §2, §3

KDM4E = target: T2, KDM4E (Homo sapiens, UniProt B2RXH2); test: LC-MS demethylation activity assay, KDM4E; format: biochemical; details: room temperature
T2 construct: KDM4DM1-L359,[39]; KDM4EM1-R336,[30]; His6 (N); made in house; host or cells: Escherichia coli
T2 sequence (B2RXH2 1-336): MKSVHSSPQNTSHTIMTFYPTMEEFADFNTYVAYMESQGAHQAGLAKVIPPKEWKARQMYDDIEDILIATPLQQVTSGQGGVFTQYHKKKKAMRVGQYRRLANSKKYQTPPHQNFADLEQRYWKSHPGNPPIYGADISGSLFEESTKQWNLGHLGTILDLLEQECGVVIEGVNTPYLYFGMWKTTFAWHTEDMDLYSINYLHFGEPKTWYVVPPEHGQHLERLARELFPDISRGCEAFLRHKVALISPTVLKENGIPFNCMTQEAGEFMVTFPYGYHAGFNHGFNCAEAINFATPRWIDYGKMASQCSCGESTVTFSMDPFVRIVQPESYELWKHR
Method: as §1, §2, §3

KDM5D = test: LC-MS demethylation activity assay, KDM5D; format: biochemical, human; details: 2 μM KDM, 10 μM H1/H3 peptide, 10 μM FAS, 100 μM LAA, 20 μM 2OG, 50 mM HEPES pH 7.5, 2 h, room temperature
Method: as §1, §2, §3

KDM6B = test: LC-MS demethylation activity assay, KDM6B; format: biochemical, human; details: 2 μM KDM, 10 μM H1/H3 peptide, 10 μM FAS, 100 μM LAA, 20 μM 2OG, 50 mM HEPES pH 7.5, 2 h, room temperature
Method: as §1, §2, §3

[1] = D (di-) initial methylation state
[2] = 2 μM KDM4D, 10 μM peptide, standard conditions, 2 h
[3] = 2 μM KDM, 10 μM H1/H3 peptide, 10 μM FAS, 100 μM LAA, 20 μM 2OG, 50 mM HEPES pH 7.5, 2 h, D (di-) initial methylation state
[4] = M (mono-) initial methylation state
[5] = 2 μM KDM, 10 μM H1/H3 peptide, 10 μM FAS, 100 μM LAA, 20 μM 2OG, 50 mM HEPES pH 7.5, 2 h, M (mono-) initial methylation state

Substance | KDM3A demethylation activity, D (KDM3A; [1]) | KDM3B demethylation activity, D (KDM3B; [1]) | KDM3C demethylation activity, D (KDM3C; [1]) | substrate conversion (demethylation) by KDM4A (KDM4A; 2 μM KDM4A, 10 μM peptide, HEPES pH 7.5, 2 h) | KDM4A demethylation activity, D (KDM4A; 2 μM KDM, 10 μM H1/H3 peptide, 50 mM HEPES pH 7.5, 2 h, D (di-) initial methylation state) | mono-methylated product formed by KDM4D (KDM4D; [2]) | non-methylated product formed by KDM4D (KDM4D; [2]) | KDM4D demethylation activity, D (KDM4D; [3]) | unmethylated lysine product formed by KDM4E (KDM4E; 2 μM KDM4E, 10 μM peptide, standard conditions, 2 h) | KDM4E demethylation activity, D (KDM4E; [3]) | KDM5D demethylation activity, D (KDM5D; [1]) | KDM6B demethylation activity, D (KDM6B; [1]) | KDM3A demethylation activity, M (KDM3A; [4]) | KDM3B demethylation activity, M (KDM3B; [4]) | KDM3C demethylation activity, M (KDM3C; [4]) | KDM4A demethylation activity, M (KDM4A; 2 μM KDM, 10 μM H1/H3 peptide, 50 mM HEPES pH 7.5, 2 h, M (mono-) initial methylation state) | KDM4D demethylation activity, M (KDM4D; [5]) | KDM4E demethylation activity, M (KDM4E; [5]) | KDM5D demethylation activity, M (KDM5D; [4]) | KDM6B demethylation activity, M (KDM6B; [4])
KKKA[Lys(Me2)]KAGATAGKRK [Peptide H1.3K24me2, 15-mer linker histone H1.3 residues 20-34 peptide, di-methylated K24] | ● [red] | ● [red] | ● [red] | ~23% | ● [yellow] (yellow dots indicate moderate demethylation (<50% conversion)) | ~53% | ~8% | ● [green] (green dots indicate good demethylation (>50% conversion)) | ~60% | ● [green] (green dots indicate good demethylation (>50% conversion)) | ● [red] | ● [red] | – | – | – | – | – | – | – | –
SAPATGGVKmeKPHRYRPGTVAL [Peptide H3K36me, histone H3 residues 28-48 peptide with mono-methylated K36; control, reference compound] | – | – | – | – | – | – | – | – | – | – | – | – | ● [red] | ● [red] | ● [red] | ● [red] | ● [red] | ● [red] | ● [red] | ● [red]
